Test results: patent publication US8883862B2, “Method for controlled release of parathyroid hormone from cross-linked hyaluronic acid hydrogel” (Kaohsiung Medical University, priority 2012, dated 2014)
Read-outs that look alike come from different tables or passages of the source.

How the values were obtained:
[1] = Stability of PTH(1-34) under UV exposure (ELISA); type: physicochemical; details: 10 minutes of UV exposure
Description: The hydrogel was fabricated by the photo-cross linking method. Briefly, 20 mg of methacrylated-hyaluronic acid (MeHA) was dissolved in 650 μL of stock solution (0.9% NaCl/4 mM HCl/0.1% BSA solution) and 100 μL of 0.07% (w/v) 12959 (Ciba specialty chemicals, Taiwan) was added to the solution. After complete dissolution, 250 μL of PTH(1-34) stock solution (10^−5 M) was added to the polymer solution and mixed completely. The mixture was transferred into glass syringe and exposed under UV light for 10 minutes. The resulting PTH/CLMH gel was washed with distilled water and then lyophilized. The morphology of the gel was examined using scanning electron microscopy (SEM) after gold coating of the samples on a stub.
The encapsulation and release kinetics are as follows: 200 μL of PTH(1-34)-loaded CLMH hydrogel (PTH/CLMH gel) suspended in 1 mL of 0.9% NaCl was crushed completely and collected the supernatant. Concentration of PTH(1-34) on the supernatant was measured using a commercially available PTH(1-34) ELISA kit following the manufacturer's instructions.

[2] = system: MC3T3-E1 (osteoblastic cells); assay: Bioactivity of released PTH(1-34): cAMP contents in cells; type: cell-based; details: PTH(1-34) released from PTH/CLMH hydrogel at 2, 3, 4, 9, 10 and 11 days; 20 mins incubation
Description: The activity of controlled released PTH(1-34) was determined by measuring cAMP contents in cells treated with released PTH(1-34). For these examples, the MC3T3-E1 (osteoblastic cells) was cultured in phenol red-free α-MEM supplemented with 10% fetal bovine serum and […] ascorbic acid. The Cells were seeded into 24-well plates at a density of 50,000 cells/well. 0.25 mM isobutylmethylxanthine was used to inhibit cAMP degradation and incubated with released PTH(1-34) for 20 mins. The cells were lysed directly in the medium by adding 0.1N HCl. Intracellular cAMP was measured using a commercially available immunoassay kit (cayman) following the manufacturer's instructions.
Statistical analysis: Three independent cultures for biochemical analysis were tested. Each example was repeated at least three times, and data (expressed as mean±SEM) from a representative example are shown. Statistical significance was evaluated by one-way analysis of variance (ANOVA), and multiple comparisons were performed by Student's t-test. A p<0.05 was considered significant.

papain-induced OA = assay: Papain-induced OA in rat knees, histology of articular cartilage (GAG, type II collagen); type: in vivo, Rats; details: OA group; intra-articular; PTH(1-34) 10 nM every 3 days, hydrogels every 10 days
Description: Rats were divided into the following 2 groups: OA group (OA induction with or without PTH(1-34) treatment) (n=5), non-OA group (n=5) injected with vehicle without PTH(1-34) treatment and OA induction. The right knees were the study joints. OA was induced in the right knees of rats in the OA groups with intra-articular injections of 20 ul of 4% papain solution and 20 ul of 0.03M cysteine. The injections were given with a 23-gauge needle via the patellar tendon on days 1, 4, and 7 of the example. In the OA group, after OA induction, the right knees were injected intra-articularly with 40 ul of 10 nM PTH(1-34) every 3 days or PTH/CLMH or CLMH every 10 days until rats were sacrificed. In the non-OA group, the same treatments were performed but without OA induction. Rats from each group were sacrificed by CO2 inhalation. Histologic analysis: After rats were sacrificed, the knees were harvested, and the tibia plateaus with articular cartilage were collected and fixed with 10% neutral buffered formalin prior to histologic preparation. The samples were then decalcified in 0.05M EDTA. The decalcified tibia articular samples were paraffin embedded, and […] microsections in the coronary plane were prepared. GAG was stained with Safranin O-fast green (1% Safranin 0 counterstained with 0.75% hematoxylin and then 1% fast green; Sigma) (dark color). […]

[3] = pulmonary route, cited from earlier work

CC[C@H](C)[C@H](NC(=O)[C@H](CCC(=O)O)NC(=O)[C@H](CO)NC(=O)[C@@H](NC(=O)[C@@H](N)CO)C(C)C)C(=O)N[C@@H](CCC(N)=O)C(=O)N[C@@H](CC(C)C)C(=O)N[C@@H](CCSC)C(=O)N[C@@H](Cc1cnc[nH]1)C(=O)N[C@@H](CC(N)=O)C(=O)N[C@@H](CC(C)C)C(=O)NCC(=O)N[C@@H](CCCCN)C(=O)N[C@@H](Cc1cnc[nH]1)C(=O)N[C@@H](CC(C)C)C(=O)N[C@@H](CC(N)=O)C(=O)N[C@@H](CO)C(=O)N[C@@H](CCSC)C(=O)N[C@@H](CCC(=O)O)C(=O)N[C@@H](CCCN=C(N)N)C(=O)N[C@H](C(=O)N[C@@H](CCC(=O)O)C(=O)N[C@@H](Cc1c[nH]c2ccccc12)C(=O)N[C@@H](CC(C)C)C(=O)N[C@@H](CCCN=C(N)N)C(=O)N[C@@H](CCCCN)C(=O)N[C@@H](CCCCN)C(=O)N[C@@H](CC(C)C)C(=O)N[C@@H](CCC(N)=O)C(=O)N[C@@H](CC(=O)O)C(=O)N[C@H](C(=O)N[C@@H](Cc1cnc[nH]1)C(=O)N[C@@H](CC(N)=O)C(=O)N[C@@H](Cc1ccccc1)C(=O)O)C(C)C)C(C)C [PTH(1-34), teriparatide]
stability of PTH(1-34) under UV exposure [1]: no significant adverse effect
expression of cAMP [2]: increased expression of cAMP
level of GAG in OA articular cartilage (papain-induced OA): could reverse papain-induced OA changes by increasing GAG level
bioavailability ([3]; inhalation of dry powders): 34%
bioavailability ([3]; intratracheal instillation): 40%
